Experimental data as given in patent publication US8476463B2 (BASF SE, priority 2008, dated 2013).

Assay: Temperature-dependent solubility (saturation concentration) of fumaric acid in di-n-butyl phthalate absorbent
Assay type: physicochemical
Text: The analysis can be effected, for example, by means of calibrated gas chromatography. For calibration, preference is given to using an internal standard, for example diethylene glycol dimethyl ether. Before the gas chromatography analysis, the sample is generally homogenized, i.e. taken up in a solvent. One example of a solvent entirely suitable for this purpose is N,N-dimethylformamide. […] Particularly suitable separating columns are capillary columns with 100% dimethylpolysiloxane (e.g. DB-1 from Agilent) or (14% cyanopropylphenyl)methylpolysiloxane (e.g. DB-1701 from Agilent), preferably each of length 60 m, internal diameter 0.32 mm and film thickness 1 μm.
The syringe attachment filter used is a membrane filter of pore width 0.2 micrometer. […] Its concentration is determined analogously to the analysis method described in the determination of c(FA, desorption column outlet). […] When establishing the new, higher temperature, the temperature of the suspension must not overshoot the desired temperature by more than 3° C. When the desired temperature has been established, the mixture is then stirred at constant temperature at least for a duration of 4 hours. • (6) After this continued stirring time, another sample is taken, as described in point (4). In each sampling, generally a new syringe attachment filter is used.
Examples of secondary components caused by the industrial process include water, maleic anhydride, maleic acid, acrylic acid, methacrylic acid, acetic acid, propionic acid, phthalic anhydride and phthalic acid. […] The continuous line corresponds to the fitted curve.

saturation concentration of fumaric acid in the solution (mixture of dibutyl phthalate and fumaric acid, 50° C.): 250 ppm by weight
saturation concentration of fumaric acid in the solution (solution from industrially operated maleic anhydride plant (dibutyl phthalate >98.5% by weight), 30° C.): 250 ppm by weight
saturation concentration of fumaric acid in the solution (solution from industrially operated maleic anhydride plant (dibutyl phthalate >98.5% by weight), 50° C.): 400 ppm by weight
SMILES: O=C(O)/C=C/C(=O)O [fumaric acid]
